Assay results taken from US8741905B2, “Compounds and methods for treating autoimmune diseases” (The Broad Institute, Inc., priority 2010, dated 2014).

How the values were obtained:
INS-1E cells [1] = test: Cellular ATP levels (CellTiter-Glo) in cytokine-treated INS-1E cells; suppression of cytokine-induced beta-cell apoptosis; assay type: cell-based, rat; conditions: INS-1E cells, cytokines IL-1β, IFN-γ, TNF-α, 48 h, CellTiter-Glo; read-out: CTG EC50 in HTS
Description: The compounds were analyzed for activity utilizing methods described in Chou et al. (ACS Chem. Biol. 2010 Aug. 20; 5(8):729-34).
INS-1E cells were seeded at 10,000 cells per well using a Multidrop Combi (Thermo Labsystems) in white optical 384-well plates (Corning Life Sciences). After overnight incubation, medium was removed and 50 μL of RPMI containing 1% FBS and a combination of cytokines (10 ng mL-^1 IL-1β, 50 ng mL^−1 IFN-γ, 25 ngmL^−1 TNF-α) was added to every well. Using libraries of compounds dissolved in DMSO and a CyBi-Well pin-transfer robot (CyBio Corp.), 0.1 μL of each compound was added. After 48 h, medium was removed and 20 μL of CellTiter-Glo reagent was added. Luminescence was measured after 10 min of incubation using an EnVision plate reader (PerkinElmer).
Instrument output files were processed using Pipeline Pilot (Accelrys) and input to MATLAB (The MathWorks) for data normalization. Compound performance scores relative to a distribution of mock-treated (DMSO) wells were calculated using a revised version of the scoring system underlying ChemBank. (Seiler et al., Nucleic Acids Res. 36, D351-359, 2008). The role of replicate treatments was further developed as follows: first, mock-treatment distributions were modeled using all mock-treated wells measured on a single day, regardless of their nominal replicate; second, per-compound scores weighted each in-plate background-subtracted measurement by the uncertainty in that measurement, using the method of maximum likelihood. The uncertainty in a single background-subtracted measurement was estimated using the number of mock-treated wells on the plate and, as a measure of the assay noise, the standard deviation of the per-day mock-treatment distribution. The signal, a weighted average of differences, was scaled by the noise, the standard deviation of the mock treatment distribution.
INS-1E cells were seeded at 10,000 cells/well using a Multidrop Combi (Thermo Labsystems) in white optical 384-well plates (Corning Life Sciences). After overnight incubation, medium was removed and 50 μL RPMI containing the treated compound, 1% FBS and a combination of cytokines (10 ng/mL IL-1β, 50 ng/mL IFN-γ, 25 ng/mL TNF-α) was added to every well. After incubation for 48 hr, medium was removed and 20 μL CellTiter-Glo reagent was added. Luminescence was measured after 10-min incubation using an EnVision plate reader (PerkinElmer).

INS-1E cells [2] = test: Caspase-3 activity assay (Caspase-Glo 3/7) in cytokine-treated INS-1E cells; assay type: cell-based, rat; conditions: cytokines, 48 h, Caspase-Glo 3/7
Description: INS-1E cells were seeded at 5,000 cells per well in white optical 384-well plates and treated as described for highthroughput screening. After treatment with cytokines and compounds for 48 h, medium was removed and 20 μL Caspase-Glo 3/7 reagent was added. Luminescence was measured after 2 h of incubation using an EnVision plate reader.

beta cells = conditions: HDAC inhibition, presumably by decreasing NF-κB transactivation; cited from earlier work

Row | EC50 (INS-1E cells [2]) | Structure (SMILES) | EC50 (INS-1E cells [1]) | cytokine-induced beta-cell death (beta cells)
1 | > 25 µM | COc1ccc(S(=O)(=O)N(C)C[C@@H]2Oc3c(NC(=O)Nc4cccc(-c5ncccn5)c4)cccc3C(=O)N([C@@H](C)CO)C[C@H]2C)cc1 [Compound 39A] | > 25 µM | 
2 | > 25 µM | COc1ccc(S(=O)(=O)N(C)C[C@@H]2Oc3c(NC(=O)Nc4cccc(-c5ccccc5)c4)cccc3C(=O)N([C@@H](C)CO)C[C@H]2C)cc1 [Compound 40A] | > 25 µM | 
3 | > 25 µM | COc1ccc(S(=O)(=O)N(C)C[C@@H]2Oc3c(NC(=O)Nc4cc(F)ccc4F)cccc3C(=O)N([C@@H](C)CO)C[C@H]2C)cc1 [Compound 41A] | > 25 µM | 
4 | > 25 µM | COc1ccc(S(=O)(=O)N(C)C[C@@H]2Oc3c(NC(=O)Nc4cccc(C(F)(F)F)c4)cccc3C(=O)N([C@@H](C)CO)C[C@H]2C)cc1 [Compound 42A] | > 25 µM | 
5 | > 25 µM | COc1ccc(S(=O)(=O)N(C)C[C@@H]2Oc3c(NC(=O)Nc4ccc5occc5c4)cccc3C(=O)N([C@@H](C)CO)C[C@H]2C)cc1 [Compound 44A] | > 25 µM | 

More lines, now with the values behind:

Row | Structure (SMILES) | EC50 (INS-1E cells [2]) | EC50 (INS-1E cells [1]) | cytokine-induced beta-cell death (beta cells)
6 | COc1ccc(S(=O)(=O)N(C)C[C@@H]2Oc3c(NC(=O)c4cccc5ccccc45)cccc3C(=O)N([C@@H](C)CO)C[C@H]2C)cc1 [Compound 35A] | > 25 µM | > 25 µM | 
7 | C[C@@H]1CN([C@@H](C)CO)C(=O)c2cccc(NC(=O)Nc3cccc4ccccc34)c2O[C@H]1CN(C)S(=O)(=O)c1cn(C)cn1 [Compound 36A] | > 25 µM | > 25 µM | 
8 | Cc1ccc(S(=O)(=O)N(C)C[C@@H]2Oc3c(NC(=O)Nc4ccc(F)cc4)cccc3C(=O)N([C@@H](C)CO)C[C@H]2C)cc1 [Compound 37A] | > 25 µM | > 25 µM | 
9 | C[C@@H]1CN([C@@H](C)CO)C(=O)c2cccc(NC(=O)Nc3ccc(F)cc3)c2O[C@H]1CN(C)S(=O)(=O)c1ccc(F)cc1 [Compound 38A] | > 25 µM | > 25 µM | 
10 | COc1ccc(S(=O)(=O)N(C)C[C@@H]2Oc3c(NC(=O)Nc4cccc5c4CCCC5)cccc3C(=O)N([C@@H](C)CO)C[C@H]2C)cc1 [Compound 43A] | > 25 µM | > 25 µM | 
11 | COc1ccc(S(=O)(=O)N(C)C[C@@H]2Oc3c(NC(=O)Nc4cccc5c4CC(C)(C)O5)cccc3C(=O)N([C@@H](C)CO)C[C@H]2C)cc1 [Compound 46A] | > 25 µM | > 25 µM | 
12 | COc1ccc(S(=O)(=O)N(C)C[C@@H]2Oc3c(NC(=O)Nc4ccc5c(c4)OCCO5)cccc3C(=O)N([C@@H](C)CO)C[C@H]2C)cc1 [Compound 47A] | > 25 µM | > 25 µM | 
13 | COc1ccc(S(=O)(=O)N(C)C[C@@H]2Oc3c(NC(=O)Nc4cc(F)cc5c4OCOC5)cccc3C(=O)N([C@@H](C)CO)C[C@H]2C)cc1 [Compound 48A] | > 25 µM | > 25 µM | 
14 | O=C(CCCCCCC(=O)Nc1ccccc1)NO [SAHA, suberoylanilide hydroxamic acid] |  |  | can prevent cytokine-induced beta-cell death
15 | CC(/C=C/C(=O)NO)=C\[C@@H](C)C(=O)c1ccc(N(C)C)cc1 [TSA, trichostatin A] |  |  | can prevent cytokine-induced beta-cell death
